{"source": "patent US4260551A", "about": "“Polyprenyl derivatives” (Sankyo Company Limited, priority 1979, dated 1981)", "key": {"[1]": {"test_system": "male rats (Donryu strain), cysteamine duodenal ulcer", "assay": "Anti-cysteamine duodenal ulcer activity", "format": "in vivo, rat", "details": "for Duodenal ulcer index: score 0-5, control 2.45", "description": "The test was carried out in accordance with the method described by H. Selye and S. Szabo in Nature, vol. 244, 458 (1973), which is as follows. Male rats (Donryu strain, body weight: 200-220 g) had been fasted overnight, were orally treated with 300 mg/kg of cysteamine to induce duodenal ulcer. The test compounds were orally administered four times, that is, for two days prior to, immediately before and on the day next to the treatment of cysteamine. The animals were killed two days after the treatment of cysteamine, and the duodenal ulcer index*^(3) was determined. The duodenal ulcer indices of the treated group and the control group were compared, and the inhibitory ratios were calculated. |^(*3) Duodenal ulcer index: Ulcer of each animal was |scored according to the |following criteria. |0: no lesion |1: hemorrhagic spots |2: product of longitudinal and latitudinal diameters |(S) ≤ 16 mm^2 |3: product of longitudinal and latitudinal diameters |(S) ≤ 16 mm^2, 16 < (s) ≤ 25 |4: product of longitudinal and latitudinal diameters |(S) ≤ 16 mm^2, (s) > 25 mm^2 |5: perforated ulcer The anti-cysteamine duodenal ulcer activity shown when the compound was orally administered is set out in Table 3."}, "[2]": {"test_system": "male mice (ddY strains), reserpine ulcer", "assay": "Anti-reserpine ulcer activity", "format": "in vivo", "details": "Mus musculus, ip, 18 h, i.p., 5 mice, reserpine 10 mg/kg s.c., read-out: Inhibitory Ratio (ulcer area)", "description": "The test was carried out in accordance with the method described by C. Blackmann, D. S. Campion and F. N. Fastier in British Journal of Pharmacology and Chemotherapy, vol. 14, 112 (1959), which is as follows:\nThe test compound was intraperitoneally administered to male mice (ddY strains, body weight: 28-33 g), and, 30 minutes later, reserpine was subcutaneously administered in the dose of 10 mg/kg. After 18 hours from the reserpine administration, the animal was sacrificed, and the stomach was isolated. This stomach was inflated with 2 ml of 0.5% formalin and was fixed. Then, the stomach was opened by cutting along the greater curvature, and the ulcer area*^(1) was measured with a stereoscopic microscope. The ulcer areas of the treated group and the control group were compared, and the inhibitory ratios were calculated.\n*(1) ulcer area (mm^2): sum of each ulcer area (longitude×latitude).\nThe anti-reserpine ulcer activity shown when the test compound was intraperitoneally administered is set out in Table 1."}, "[3]": {"test_system": "ddY strain male mouse", "assay": "Acute toxicity, ddY strain male mouse", "format": "in vivo", "details": "5,000 mg/kg orally given", "excerpt": "(§1) The acute toxicity of the compound A is set out in Table 4."}, "[4]": {"test_system": "Donryu strain male rat", "assay": "Acute toxicity, Donryu strain male rat", "format": "in vivo", "details": "1,000 mg/kg orally given", "excerpt": "as §1"}, "[5]": {"test_system": "male rats (Donryu strain), stress ulcer", "assay": "Anti-stress ulcer activity (restraint-immersion)", "format": "in vivo, rat", "details": "for Ulcer index: control 22.3", "description": "The test was carried out in accordance with the method described by K. takagi and S. Okabe in The Japanese Journal of Pharmacology, vol. 18, 9 (1968), which is as follows:\nMale rats (Donryu strain, body weight: 200-220 g) were placed under restraint in a stress cage and immersed vertically in the water bath kept at 23°±1° C. to the height of the xiphoid of the animal. After restraint-immersion for 8 hours, the animals were sacrificed. The stomach was fixed with formalin and measured in its ulcer index *^(2). The ulcer indices of the treated group and the control group were compared, and the inhibitory ratios were calculated. The test compound was orally administered for 3 days prior to and immediately before the restraint-immersion.\n*(2) ulcer index (mm): sum of the length of each linear ulcer.\nThe anti-stress ulcer activity shown when the test compound was orally administered is set out in Table 2."}, "[6]": {"details": "Arch. int. Pharmacodyn., 1964, 147, 113; cited from earlier work"}, "[7]": {"details": "300 mg/kg/day × 4, p.o., Compound A marked *significant inhibition, probability less than 0.05"}, "[8]": {"details": "100 mg/kg/day × 4, p.o., Compound A marked *significant inhibition, probability less than 0.05"}}, "data": [{"smiles": "CC(C)=CCC/C(C)=C/CC/C(=C/CC/C(C)=C/CO)CO", "note": "[Compound A, (E,Z,E)7-hydroxymethyl-3,11,15-trimethyl-2,6,10,14-hexadecatetraen-1-ol]", "values": [{"measurement": "Inhibitory ratio (duodenal ulcer index)", "setting": "[1]; 100 mg/kg/day × 4, p.o.", "value": 18}, {"measurement": "Duodenal ulcer index", "setting": "[1]; 100 mg/kg/day × 4, p.o.", "value": 2.00}, {"measurement": "Inhibitory ratio (duodenal ulcer index)", "setting": "[1]; [7]", "value": 34}, {"measurement": "Duodenal ulcer index", "setting": "[1]; 300 mg/kg/day × 4, p.o.", "value": 1.56}, {"measurement": "inhibition in vivo at 100 mg/kg", "setting": "[2]", "value": 68.4, "unit": "%"}, {"measurement": "Death/Survival", "setting": "[3]", "value": "0/5"}, {"measurement": "Death/Survival", "setting": "[4]", "value": "0/5"}, {"measurement": "Inhibitory ratio (ulcer index)", "setting": "[5]; 10 mg/kg/day × 4, p.o.", "value": 17}, {"measurement": "Ulcer index", "setting": "[5]; 10 mg/kg/day × 4, p.o.", "value": 18.5, "unit": "mm"}, {"measurement": "Inhibitory ratio (ulcer index)", "setting": "[5]; 30 mg/kg/day × 4, p.o., *significant inhibition, probability less than 0.05", "value": 37}, {"measurement": "Ulcer index", "setting": "[5]; 30 mg/kg/day × 4, p.o.", "value": 13.8, "unit": "mm"}, {"measurement": "Inhibitory ratio (ulcer index)", "setting": "[5]; [8]", "value": 43}, {"measurement": "Ulcer index", "setting": "[5]; 100 mg/kg/day × 4, p.o.", "value": 12.7, "unit": "mm"}]}, {"smiles": "CC(C)=CCCC(C)=CCCC(C)=CCCC(=O)OC/C=C(\\C)CCC=C(C)C", "note": "[Gefarnate, geranyl farnesylacetate, reference compound]", "values": [{"measurement": "Inhibitory ratio (duodenal ulcer index)", "setting": "[1]; [7]", "value": 10}, {"measurement": "Duodenal ulcer index", "setting": "[1]; 300 mg/kg/day × 4, p.o.", "value": 2.20}, {"measurement": "inhibition in vivo at 100 mg/kg", "setting": "[2]", "value": 10, "unit": "%"}, {"measurement": "anti-ulcer activity", "setting": "[6]", "value": "has an anti-ulcer activity"}, {"measurement": "Inhibitory ratio (ulcer index)", "setting": "[5]; [8]", "value": -13}, {"measurement": "Ulcer index", "setting": "[5]; 100 mg/kg/day × 4, p.o.", "value": 25.3, "unit": "mm"}, {"measurement": "Inhibitory ratio (ulcer index)", "setting": "[5]; 300 mg/kg/day × 4, p.o.", "value": -57}, {"measurement": "Ulcer index", "setting": "[5]; 300 mg/kg/day × 4, p.o.", "value": 35.0, "unit": "mm"}]}, {"smiles": "CC(C)=CCC/C(C)=C/CCC(C)=CCCC(=CCC/C(C)=C/CO)CO", "note": "[Compound O, 7-Hydroxymethyl-3,11,15,19-tetramethyl-2,6,10,14,18-eicosapentaen-1-ol]", "values": [{"measurement": "inhibition in vivo at 122 mg/kg", "setting": "[2]; 122 mg/kg", "value": 74.2, "unit": "%"}]}, {"smiles": "NC(=O)CC[C@H](N)C(=O)O", "note": "[L-Glutamine, reference compound]", "values": [{"measurement": "Inhibitory ratio (duodenal ulcer index)", "setting": "[1]; 1000 mg/kg/day × 4, p.o.", "value": 31}, {"measurement": "Duodenal ulcer index", "setting": "[1]; 1000 mg/kg/day × 4, p.o.", "value": 1.70}]}, {"smiles": "CC(C)=CCCC(=CCCC(C)=CCC/C(C)=C/CO)CO", "note": "[Compound L, (E,E,E), (E,Z,E), (E,E,Z) & (E,Z,Z)11-hydroxymethyl-3,7,15-trimethyl-2,6,10,14-hexadecatetraen-1-ol]", "values": [{"measurement": "inhibition in vivo at 100 mg/kg", "setting": "[2]", "value": 55.3, "unit": "%"}]}, {"smiles": "CC(=O)OC/C=C(\\C)CCC=C(CCC=C(C)CC/C=C(\\C)CCC=C(C)C)COC(C)=O", "note": "[Compound P, 7-Hydroxymethyl-3,11,15,19-tetramethyl-2,6,10,14,18-eicosapentaen-1-ol diacetate]", "values": [{"measurement": "inhibition in vivo at 150 mg/kg", "setting": "[2]; 150 mg/kg", "value": 45.7, "unit": "%"}]}, {"smiles": "CC(C)=CCC/C(C)=C/CC/C(=C/CC/C(C)=C/COC(=O)c1ccccc1)COC(=O)c1ccccc1", "note": "[Compound E, (E,Z,E)7-hydroxymethyl-3,11,15-trimethyl-2,6,10,14-hexadecatetraen-1-ol dibenzoate]", "values": [{"measurement": "inhibition in vivo at 171 mg/kg", "setting": "[2]; 171 mg/kg", "value": 64.5, "unit": "%"}]}, {"smiles": "CC(=O)OC/C=C(\\C)CC/C=C(\\CC/C=C(\\C)CCC=C(C)C)COC(C)=O", "note": "[Compound I, (E,E,E)7-hydroxymethyl-3,11,15-trimethyl-2,6,10,14-hexadecatetraen-1-ol diacetate]", "values": [{"measurement": "inhibition in vivo at 127 mg/kg", "setting": "[2]", "value": 64.5, "unit": "%"}]}, {"smiles": "CC(C)=CCC/C(C)=C\\CCC(=CCC/C(C)=C/CO)CO", "note": "[Compound K, (E,Z,Z) & (E,E,Z)7-hydroxymethyl-3,11,15-trimethyl-2,6,10,14-hexadecatetraen-1-ol]", "values": [{"measurement": "inhibition in vivo at 100 mg/kg", "setting": "[2]", "value": 58.7, "unit": "%"}]}, {"smiles": "CC(C)=CCC/C(C)=C/CCC(=CCC/C(C)=C/CO)CO", "note": "[Compound B, (E,Z,E) & (E,E,E)7-hydroxymethyl-3,11,15-trimethyl-2,6,10,14-hexadecatetraen-1-ol]", "values": [{"measurement": "inhibition in vivo at 100 mg/kg", "setting": "[2]", "value": 65, "unit": "%"}]}, {"smiles": "CC(C)=CCC/C(C)=C/CCC(C)=CCCC(=CCC/C(C)=C/COC(=O)c1ccccc1)COC(=O)c1ccccc1", "note": "[Compound Q, 7-Hydroxymethyl-3,11,15,19-tetramethyl-2,6,10,14,18-eicosapentaen-1-ol dibenzoate]", "values": [{"measurement": "inhibition in vivo at 193 mg/kg", "setting": "[2]; 193 mg/kg", "value": 56.2, "unit": "%"}]}, {"smiles": "COC/C=C(\\C)CC/C=C(/CC/C=C(\\C)CCC=C(C)C)COC", "note": "[Compound G, (E,Z,E)7-hydroxymethyl-3,11,15-trimethyl-2,6,10,14-hexadecatetraen-1-ol dimethyl ether]", "values": [{"measurement": "inhibition in vivo at 109 mg/kg", "setting": "[2]; 109 mg/kg", "value": 45, "unit": "%"}]}, {"smiles": "CC(C)=CCCC(=CCC/C(C)=C/CO)CO", "note": "[Compound M, (E,Z) & (E,E)7-hydroxymethyl-3,11-dimethyl-2,6,10-dodecatrien-1-ol]", "values": [{"measurement": "inhibition in vivo at 77.8 mg/kg", "setting": "[2]; 77.8 mg/kg", "value": 60.1, "unit": "%"}]}, {"smiles": "CCCCCCCCCCCC(=O)OC/C=C(\\C)CC/C=C(/CC/C=C(\\C)CCC=C(C)C)COC(=O)CCCCCCCCCCC", "note": "[Compound F, (E,Z,E)7-hydroxymethyl-3,11,15-trimethyl-2,6,10,14-hexadecatetraen-1-ol dilaurate]", "values": [{"measurement": "inhibition in vivo at 220 mg/kg", "setting": "[2]; 220 mg/kg", "value": 63.3, "unit": "%"}]}, {"smiles": "CC(C)=CCC/C(C)=C/CC/C(=C\\CC/C(C)=C/CO)CO", "note": "[Compound H, (E,E,E)7-hydroxymethyl-3,11,15-trimethyl-2,6,10,14-hexadecatetraen-1-ol]", "values": [{"measurement": "inhibition in vivo at 100 mg/kg", "setting": "[2]", "value": 57, "unit": "%"}]}, {"smiles": "CC(=O)OC/C=C(\\C)CC/C=C(/CC/C=C(\\C)CCC=C(C)C)COC(C)=O", "note": "[Compound D, (E,Z,E)7-hydroxymethyl-3,11,15-trimethyl-2,6,10,14-hexadecatetraen-1-ol diacetate]", "values": [{"measurement": "inhibition in vivo at 127 mg/kg", "setting": "[2]", "value": 54.2, "unit": "%"}]}, {"smiles": "C/C(=C\\CC/C(C)=C/CCC(=CCC/C(C)=C/CO)CO)CO", "note": "[Compound N, 7,15-Dihydroxymethyl-3,11-dimethyl-2,6,10,14-hexadecatetraen-1-ol]", "values": [{"measurement": "inhibition in vivo at 105 mg/kg", "setting": "[2]; 105 mg/kg", "value": 64.5, "unit": "%"}]}, {"smiles": "CC(C)=CCC/C(C)=C/CC/C(=C\\CC/C(C)=C\\CO)CO", "note": "[Compound J, (Z,E,E)7-hydroxymethyl-3,11,15-trimethyl-2,6,10,14-hexadecatetraen-1-ol]", "values": [{"measurement": "inhibition in vivo at 100 mg/kg", "setting": "[2]", "value": 49.4, "unit": "%"}]}, {"smiles": "CC(C)=CCC/C(C)=C/CCC(=CCCC(C)=CCO)CO", "note": "[Compound C, (E,Z,E), (E,E,E), (Z,Z,E) & (Z,E,E)7-hydroxymethyl-3,11,15-trimethyl-2,6,10,14-hexadecatetraen-1-ol]", "values": [{"measurement": "inhibition in vivo at 100 mg/kg", "setting": "[2]", "value": 59, "unit": "%"}]}]}
